# Measured values as given in patent publication US9914910B2, “Methods of preserving and protecting pancreatic beta cells and treating or preventing diabetes by inhibiting NOX-1” (Eastern Virginia Medical School, priority 2013, dated 2018).
# Columns and labels:
# [1] = system: beta cells; assay: Pro-caspase 3 cleavage after PIC, beta cell survival; assay type: cell-based; conditions: C1 100 nM, ML171 10 μM
# Protocol: Loss of beta cell viability in response to inflammatory cytokines was assessed by measurement of caspase 3 activation and quantified microscopy. […] Measured by pro-caspase 3 cleavage (A) or quantified microscopy of YO-PRO-1 stained cells (B). […] Shown are RFU from fluorescent capase3 substrate, ##p<0.01 relative to control; *p<0.05; **p<0.01 relative to PIC (A) and Microscopic apoptotic index ###p<0.001 relative to control; ***p<0.001; **p<0.01 relative to PIC (B).
# [2] = system: NOX-1 protein in INS-1 cells; assay: NOX-1 protein expression (western blot); assay type: cell-based; conditions: Rattus norvegicus, INS1, 24 h; read-out: inhibition of PIC induction of NOX-1 protein
# Protocol: (§1) Cells were then lysed (1× PBS, 1% Triton X-100, 1 mM PMSF, 1 mM Halt Protease Inhibitor Cocktail (Pierce, Rockford, Ill.), 1 mM NaVO4), and incubated on ice for 20 min. Cleared (14,000 rpm, 15 min, 4° C.) lysate was collected. Proteins separated on 10% Tris-glycine gels (Life Technologies) were transferred onto PDVF (Immobilon-FL, Millipore, Billerca, Mass.). Membranes were blocked in TBS/0.05% Tween (Sigma) plus 5% non-fat milk (Bio-Rad) for 1 hr at room temperature before incubation overnight at 40 in primary antibody with gentle shaking. The membrane was washed between antibody cycles four times for 5 min each in TBS/Tween (0.05%). Primary antibodies: 1:250 Anti-NOX-1 or 1:1000 β-actin 1 (Abcam, Cambridge, Mass.).
# (§2) Signal detected with 1:2000 HRP-secondary antibody for 1 hour (GE Healthcare, Buckinghamshire, UK) SuperSignal Chemiluminescent Substrate (Thermo Scientific, Rockford, Ill.) on a ChemiDoc XRS System (Bio-Rad). Densitometry was determined using Image J (http://rsb-web.nih.gov/i/).
# [3] = system: NOX-1 protein in βTC-3 cells; assay: NOX-1 protein expression (western blot); assay type: cell-based; conditions: Mus musculus, 24 h; read-out: inhibition of PIC induction of NOX-1 protein
# Protocol: as §1, §2
# [4] = system: βTC-3 cells; assay: Glucose-stimulated insulin secretion (GSIS) after PIC; assay type: cell-based, mouse; conditions: βTC-3, 1 mM vs 16 mM glucose, p<0.01
# Protocol: (§3) Treated islets or cells then were washed with PBS and placed in 1 mL serum-free Kreb-Ringer buffer (115 mM NaCl, 24 mM NaHCO3, 5 mM KCl, 1 mM MgCl2, and 25 mM HEPES) for 1 hour at 370 C. Low (1 mM) or high (16 mM) glucose was added for […] for 30 min. Insulin levels in media were measured by ELISA (Mercodia, Winston Salem, N.C.) as per the manufacturer's instructions.
# [5] = system: primary human donor islets; assay: Apoptosis by YO-PRO-1 fluorescence microscopy after PIC; assay type: cell-based; conditions: 10 μM ML171
# Protocol: (§4) Human donor islets were obtained from integrated islet distribution project (http://iidp.coh.org) and cultured in CMRL media (Mediatech, Manassas, Va.). Mouse islets were freshly isolated from 8-week old male C57BL/6J mice (Jackson Laboratory, Bar Harbor, Me.) by common bile duct cannulation and collagenase digestion. Islets were hand picked prior to use.
# (§5) B. Fluorescence microscopy: Stimulated cells or islets were washed in cold PBS, and incubated for 30 mins at 40 C with cold PBS containing 1 μg/mL propidium iodide and 0.1 μM YO-PRO-1 (Life Technologies). For cell lines, five randomly fields per well were analyzed. For islets, all islets (>1000 um2 in size) were analyzed. Densitometric fluorescent value for YO-PRO-1 (green channel) was normalized to background and expressed proportional to cell occupied area (phase contrast). Images captured across three channels with Axiophot (Zeiss, Jena, Germany) with Axiovision (Zeiss) image analysis.
# [6] = system: βTC-3 cells; assay: as above; assay type: cell-based, mouse; conditions: βTC-3, PIC 24 hours, p<0.001
# Protocol: as §5
# [7] = system: INS-1 cells; assay: Caspase-3 assay (pro-caspase-3 cleavage) after PIC; assay type: cell-based, rat; conditions: INS-1, PIC 4 hours, up to
# Protocol: A. Caspase-3 Assay: Pro-caspase-3 cleavage was measured using a caspase-3 Assay kit (BD Pharmigen, Franklin Lakes, N.J.) per the manufacturer's instructions; fluorescence being measured (SpectraMax, Molecular Devices, Sunnyvale, Calif.) at excitation 380 nm and emission 440 nm (INS-1) or 460 nm (βTC-3, mouse).
# [8] = system: NOX-1 gene expression in primary mouse islets; assay: PIC-induced NOX-1 gene expression (RT-PCR); assay type: cell-based
# Excerpt: Human donor islets were obtained from integrated islet distribution project (http://iidp.coh.org) and cultured in CMRL media (Mediatech, Manassas, Va.). Mouse islets were freshly isolated from 8-week old male C57BL/6J mice (Jackson Laboratory, Bar Harbor, Me.) by common bile duct cannulation and collagenase digestion. Islets were hand picked prior to use. […] Total RNA was isolated using the RNeasy Mini Kit (Qiagen, Valencia, Calif.) and cDNA prepared using MMLV reverse transcriptase (Life Technologies) and random hexamers (Life Technologies). Jump Start Taq polymerase (Life Technologies) was used in PCR reactions. Primers used with SYBR Green 1 (Molecular Probes, Carlsbad, Calif.) probes: […] GAPDH forward [NT] ID NO: 3); GAPDH reverse [NT] NO: 4). RT-PCR reactions were performed in triplicate (CFX96 Bio-Rad, Hercules, Calif.). Taqman primers (Life Technologies) were also used.
# [9] = system: primary mouse islets; assay: Glucose-stimulated insulin secretion (GSIS) after PIC; assay type: cell-based; conditions: 10 μM ML171, 1 mM vs 16 mM glucose
# Protocol: as §4, §3
# [10] = system: NOX-1 protein in piglet islets; assay: PIC-induced NOX-1 protein in piglet islets; assay type: cell-based; conditions: 1 μM, 18 hours
# Protocol: The methods disclosed herein may also be utilized in the preparation of viable xenotransplantable porcine islets and/or the treatment of a mammalian patient (including humans) suffering from diabetes involving the transplantation into the mammal of viable porcine islets capable of producing insulin within the host. Piglet islets are candidates for xenotransplantation of piglet islets with cytokines (PIC; TNF, IL-1, IFN) induced expression of NOX-1 protein. […] Islets were treated for 18 hours. Data supports feedforward regulation of NOX-1 expression and effective uncoupling of this pathway in piglet islets by inhibition of NOX-1 activity.
compound,measurement,setting,value
"CC(=O)c1ccc2c(c1)Nc1ccccc1S2 [ML171, 2-acetylphenothiazine]","inflammatory cytokine-induced cell death, pro-caspase 3 cleavage",[1],significantly protected
same,inhibition at 1 µM,[2],100%
same,inhibition at 1 µM,[3],100%
same,glucose-stimulated insulin secretion with PIC,[4],restoring the glucose-sensitive insulin response
same,reduction of beta-cell apoptosis induced by PICs,[5],30%±3%
same,PIC-induced apoptosis (YO-PRO-1),[6],apoptosis was significantly decreased
same,block of PIC-induced activation of caspase-3,[7],up to 100%±3.4%
same,inhibition of PIC-induced expression of NOX-1,"[8]; 1 μM, 24 hours",84%
same,induction of gene NOX-1 by PIC,"[8]; NCTT-1 100 nM, ML171 1 μM",attenuated
same,glucose stimulated insulin response with PIC,[9],partially restored
same,PIC-induced NOX-1 protein,[10],reduces PIC-induced NOX-1 protein
